The test system of one test is SCPMA. The test is described as follows: In-water applied weed control, transplanted paddy rice (greenhouse). In kind it is in vivo, Bolboschoenus maritimus (L.) Palla. As for the experimental part:
(§1) Weed seeds or nutlets of the desired test plant species were planted in puddled soil (mud) prepared by mixing a shredded, non-sterilized mineral soil (50.5 percent silt, 25.5 percent clay, and 24 percent sand, with a pH of about 7.6 and an organic matter content of about 2.9 percent) and water at a 1:1 volumetric ratio. The prepared mud was dispensed in 365 mL aliquots into 16-ounce (oz.) non-perforated plastic pots with a surface area of 86.59 square centimeters (cm^2) leaving a headspace of 3 centimeters (cm) in each pot. Mud was allowed to dry overnight prior to planting or transplanting. Rice seeds were planted in Sun Gro MetroMix® 306 planting mixture, which typically has a pH of 6.0 to 6.8 and an organic matter content of about 30 percent, in plastic plug trays. Seedlings at the second or third leaf stage of growth were transplanted into 860 mL of mud contained in 32-oz. non-perforated plastic pots with a surface area of 86.59 cm^2 4 days prior to herbicide application. The paddy was created by filling the headspace of the pots with 2.5 to 3 cm of water. When required to ensure good germination and healthy plants, a fungicide treatment and/or other chemical or physical treatment was applied. The plants were grown for 4-22 days in a greenhouse with an approximate 14 hr photoperiod which was maintained at about 29′C during the day and 26° C. during the night. Nutrients were added as Osmocote® (19:6:12, N:P:K+minor nutrients) at 2 g per 16-oz. pot and 4 g per 32-oz. pot. Water was added on a regular basis to maintain the paddy flood, and supplemental lighting was provided with overhead metal halide 1000-Watt lamps as necessary. The plants were employed for testing when they reached the first through fourth true leaf stage.
(§2) Treatments consisted of the acid or esters of 4-amino-3-chloro-5-fluoro-6-(4-chloro-2-fluoro-3-methoxy-phenyl)pyridine-2-carboxylic acid (compound A) each formulated as an SC and various herbicidal components alone and in combination. Forms of compound A were applied on an acid equivalent basis.
(§3) Other herbicidal components were applied on an active ingredient basis and included the dimethoxy-pyrimidine acid acetolactate synthase (ALS)-inhibiting herbicides bispyribac-sodium formulated as Regiment® 80 WP, pyriminobac-methyl formulated as Hie Clean®, and pyriftalid (technical grade material).
(§4) Treatment requirements for each compound or herbicidal component were calculated based upon the rates being tested, the concentration of active ingredient or acid equivalent in the formulation, an application volume of 2 mL per component per pot, and an application area of 86.59 cm^2 per pot.
(§5) For formulated compounds, a measured amount was placed in an individual 100 or 200 mL glass vial and was dissolved in a volume of 1.25% (v/v) Agri-Dex® crop oil concentrate to obtain application solutions.
(§6) For technical grade compounds, a weighed amount was placed in an individual 100 to 200 mL glass vial and was dissolved in a volume of acetone to obtain concentrated stock solutions. […] The concentrated stock solutions obtained were diluted with an equivalent volume of an aqueous mixture containing 2.5% (v/v) crop oil concentrate so that the final application solutions contained 1.25% (v/v) crop oil concentrate.
(§7) Applications were made by injecting with a pipetter appropriate amounts of the application solutions, individually and sequentially, into the aqueous layer of the paddy.
(§8) Control plants were treated in the same manner with the solvent blank. Applications were made so that all treated plant material received the same concentrations of acetone and crop oil concentrate.
(§9) The treated plants and control plants were placed in a greenhouse as described above and water was added as needed to maintain a paddy flood. […]

In another test the test system is ECHOR. Described as above. It is filed as in vivo, Echinochloa oryzoides (Ard.) Fritsch. As for the experimental part: as §1, §2, §3, §4, §5, §6, §7
Control plants were treated in the same manner with the solvent blank. […]

Another test deals with FIMMI. Described as above. In kind it is in vivo, Fimbristylis miliacea (L.) Vahl. The following applies: 4.38 gae/ha. The method, then: as §1, §2, §3, §4, §5, §6, §7, §8, §9
Another test has as its system CYPRO. The test is described as above. In kind it is in vivo, Cyperus rotundus L. As for the experimental part:
as §1, §2, §3, §4, §5, §6, §7, §8, §9

In another test the test system is ECHCG. The test is described as follows: Postemergence foliar-applied weed control, direct seeded rice (greenhouse). In kind it is in vivo, Echinochloa crusgalli (L.) Beauv. An excerpt: Seeds or nutlets of the desired test plant species were planted in a soil matrix prepared by mixing a loam or sandy loam soil (e.g., 28.6 percent silt, 18.8 percent clay, and 52.6 percent sand, with a pH of about 5.8 and an organic matter content of about 1.8 percent) and calcareous grit in an 80 to 20 ratio. The soil matrix was contained in plastic pots with a volume of 1 quart and a surface area of 83.6 square centimeters (cm^2). When required to ensure good germination and healthy plants, a fungicide treatment and/or other chemical or physical treatment was applied. The plants were grown for 8-22 days in a greenhouse with an approximate 14 hr photoperiod which was maintained at about 29° C. during the day and 26° C. during the night. Nutrients (Peters Excel® 15-5-15 5-Ca 2-Mg and iron chelate) were applied in the irrigation solution as needed and water was added on a regular basis. Supplemental lighting was provided with overhead metal halide 1000-Watt lamps as necessary. The plants were employed for testing when they reached the first through fourth true leaf stage. […]
(§10) Treatment requirements were calculated based upon the rates being tested, the concentration of active ingredient or acid equivalent in the formulation, and a 12 mL application volume at a rate of 187 L/ha.
For treatments comprised of formulated compounds, measured amounts of compounds were placed individually in 25 mL glass vials and diluted in a volume of 1.25% (v/v) Agri-Dex® crop oil concentrated to obtain 12× stock solutions. […]
(§11) For treatments comprised of formulated and technical compounds, weighed amounts of the technical materials were placed individually in 25 mL glass vials and dissolved in a volume of 97:3 v/v acetone/DMSO to obtain 12× stock solutions, and measured amounts of the formulated compounds were placed individually in 25 mL glass vials and diluted in a volume of 1.5% (v/v) crop oil concentrate or water to obtain 12× stock solutions. […]

The next test has as its system LEFCH. Described as above. It is filed as in vivo, Leptochloa chinensis (L.) Nees.
Source text: (§12) Seeds or nutlets of the desired test plant species were planted in a soil matrix prepared by mixing a loam or sandy loam soil (e.g., 28.6 percent silt, 18.8 percent clay, and 52.6 percent sand, with a pH of about 5.8 and an organic matter content of about 1.8 percent) and calcareous grit in an 80 to 20 ratio. The soil matrix was contained in plastic pots with a volume of 1 quart and a surface area of 83.6 square centimeters (cm^2). When required to ensure good germination and healthy plants, a fungicide treatment and/or other chemical or physical treatment was applied. The plants were grown for 8-22 days in a greenhouse with an approximate 14 hr photoperiod which was maintained at about 29° C. during the day and 26° C. during the night. Nutrients (Peters Excel® 15-5-15 5-Ca 2-Mg and iron chelate) were applied in the irrigation solution as needed and water was added on a regular basis. Supplemental lighting was provided with overhead metal halide 1000-Watt lamps as necessary. The plants were employed for testing when they reached the first through fourth true leaf stage.
(§13) Treatments consisted of the acid or esters of 4-amino-3-chloro-5-fluoro-6-(4-chloro-2-fluoro-3-methoxy-phenyl)pyridine-2-carboxylic acid (Compound A), each formulated as an SC (suspension concentrate), and various herbicidal components alone and in combination. Forms of compound A were applied on an acid equivalent basis.
(§14) Other herbicidal components were applied on an active ingredient basis and included the dimethoxy-pyrimidine acid acetolactate synthase (ALS)-inhibiting herbicides bispyribac-sodium formulated as Regiment® 80WP, pyribenzoxim (technical grade material), pyriminobac-methyl formulated as Hie-Clean® 1.2% GR dissolved in water, and pyriftalid (technical grade material).
as §10
(§15) For treatments comprised of formulated compounds, measured amounts of compounds were placed individually in 25 mL glass vials and diluted in a volume of 1.25% (v/v) Agri-Dex® crop oil concentrated to obtain 12× stock solutions. […] Application solutions were prepared by adding an appropriate amount of each stock solution (e.g., 1 mL) and diluted to the appropriate final concentrations with the addition of 10 mL of an aqueous mixture of 1.25% (v/v) crop oil concentrate so that the final spray solutions contained 1.25+/−0.005% (v/v) crop oil concentrate.
(§16) For treatments comprised of technical compounds, weighed amounts can be placed individually in 25 mL glass vials and dissolved in a volume of 97:3 v/v acetone/DMSO to obtain 12× stock solutions. […] Application solutions can be prepared by adding an appropriate amount of each stock solution (e.g., 1 mL) and diluted to the appropriate final concentrations with the addition of 10 mL of an aqueous mixture of 1.5% (v/v) crop oil concentrate so that the final spray solutions contain 1.25% (v/v) crop oil concentrate. When technical materials are used, the concentrated stock solutions can be added to the spray solutions so that the final acetone and DMSO concentrations of the application solutions are 16.2% and 0.5%, respectively.
as §11

In another test the test system is IPOHE. The description is as above. It is filed as in vivo, Ipomoea hederacea Jacq.
Source text: as §12, §13, §14, §10, §15, §16, §11

Take `CCCCOC(=O)c1nc(-c2ccc(Cl)c(OC)c2F)c(F)c(N)c1Cl` [Compound A n-Butyl Ester]: the “Visual Weed Control (%)-20 DAA SCPMA Obs” value with SCPMA (70 gae/ha) is recorded as 0%. Also, the “Visual Weed Control (%)-20 DAA ECHOR Obs” value in the test on ECHOR (35 gae/ha) was 35%; in the test on ECHOR (70 gae/ha), 40%.
In the case of `COc1c(Cl)ccc(-c2nc(C(=O)OCc3ccccc3)c(Cl)c(N)c2F)c1F` [Compound A Benzyl Ester], in the test with FIMMI, the “Visual Weed Control (%)-21 DAA FIMMI Obs” value is listed as 20%. In addition, the “Visual Weed Control (%)-21 DAA SCPMA Obs” value in the test on SCPMA (4.38 gae/ha) and with SCPMA (8.75 gae/ha) was 0% throughout. In addition, the “Visual Weed Control (%)-20 DAA SCPMA Obs” value with SCPMA (35 gae/ha) is recorded as 0%; with SCPMA (35 gae/ha, Table 11), 0%; in the test with SCPMA (70 gae/ha), 0%. In the test on CYPRO (4.38 gae/ha), the “Visual Weed Control (%)-20 DAA CYPRO Obs” value was determined as 50%. For the same compound, the “Visual Weed Control (%)-21 DAA CYPRO Obs” value in the test with CYPRO (4.38 gae/ha, Table 11) worked out at 0%; in the test with CYPRO (4.38 gae/ha, Table 13), 30%; with CYPRO (8.75 gae/ha, Table 11) it was 20%; in the test with CYPRO (8.75 gae/ha, Table 13), 60%; with CYPRO (17.5 gae/ha), 10%. For the same compound, the “Visual Weed Control (%) - 20 DAA ECHCG Obs” value with ECHCG (8 gae/ha) is 75%; with ECHCG (16 gae/ha), 85%. For the same compound, the “Visual Weed Control (%)-24 DAA LEFCH Obs” value amounted to 0% in the test on LEFCH (4.38 gae/ha), 0% in the test on LEFCH (8.75 gae/ha) and 10% with LEFCH (17.5 gae/ha). Also, the “Visual Weed Control (%)-20 DAA LEFCH Obs” value in the test with LEFCH (8.75 gae/ha) stood at 10%; in the test with LEFCH (17.5 gae/ha), 20%. The “Visual Weed Control (%)-22 DAA LEFCH Obs” value in the test on LEFCH (17.5 gae/ha) is reported as 25%. In addition, the figures for the “Visual Weed Control (%)-24 DAA IPOHE Obs” value with IPOHE (4.38 gae/ha), with IPOHE (8.75 gae/ha) and in the test with IPOHE (17.5 gae/ha) were 10%, 15% and 30%, respectively. The “Visual Weed Control (%)-21 DAA IPOHE Obs” value in the test with IPOHE (17.5 gae/ha) is 43%.

Source of the values: patent US8871680B2, “Herbicidal compositions comprising 4-amino-3-chloro-5-fluoro-6-(4-chloro-2-fluoro-3-methoxyphenyl) pyridine-2-carboxylic acid or a derivative thereof and a di-methoxy-pyrimidine and derivatives thereof” (Dow AgroSciences LLC, priority 2012, dated 2014).
